Numbering of substitutions follows the chain as printed.
T1: hMIGA2long (Homo sapiens, UniProt Q7L4E1)
T1 construct: gene MIGA2; N-terminal 3xFLAG (Expi293F) and/or C-terminal His6 (E. coli), tags kept; dimer
T1 sequence (Q7L4E1 170-593): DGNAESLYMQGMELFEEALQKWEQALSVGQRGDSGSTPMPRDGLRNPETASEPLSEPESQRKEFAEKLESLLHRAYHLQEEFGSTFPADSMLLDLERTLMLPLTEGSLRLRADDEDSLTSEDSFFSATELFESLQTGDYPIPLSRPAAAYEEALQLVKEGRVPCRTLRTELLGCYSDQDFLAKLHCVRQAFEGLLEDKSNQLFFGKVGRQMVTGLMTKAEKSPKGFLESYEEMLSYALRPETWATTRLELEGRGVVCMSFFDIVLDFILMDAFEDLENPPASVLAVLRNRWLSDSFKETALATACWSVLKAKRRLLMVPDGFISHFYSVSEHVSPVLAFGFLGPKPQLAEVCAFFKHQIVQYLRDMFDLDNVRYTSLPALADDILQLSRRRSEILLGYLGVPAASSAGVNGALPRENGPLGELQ

T2: hMIGA2C (Homo sapiens, UniProt Q7L4E1)
T2 construct: gene MIGA2; C-terminal domain only, residues 306-593, C-terminal His6 kept, expressed in E. coli BL21(DE3); monomer by SEC
T2 sequence (Q7L4E1 306-593): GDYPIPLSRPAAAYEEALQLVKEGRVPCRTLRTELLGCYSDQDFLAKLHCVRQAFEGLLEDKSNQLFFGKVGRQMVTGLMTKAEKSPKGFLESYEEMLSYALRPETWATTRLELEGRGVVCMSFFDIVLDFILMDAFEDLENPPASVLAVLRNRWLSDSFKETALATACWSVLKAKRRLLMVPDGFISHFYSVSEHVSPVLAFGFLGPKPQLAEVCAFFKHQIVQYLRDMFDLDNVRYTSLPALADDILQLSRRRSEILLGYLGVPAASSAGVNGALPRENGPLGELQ

T3: hMIGA2long (Homo sapiens, UniProt Q7L4E1, V376D/L438E/F495H/I528K)
T3 construct: gene MIGA2; N-terminal 3xFLAG (Expi293F) and/or C-terminal His6 (E. coli), tags kept; dimer
T3 sequence (Q7L4E1 170-593 V376D/L438E/F495H/I528K): T1 sequence (Q7L4E1 170-593) with V207D, L269E, F326H, I359K

T4: hMIGA2long (Homo sapiens, UniProt Q7L4E1, R357N/S428G)
T4 construct: gene MIGA2; N-terminal 3xFLAG (Expi293F) and/or C-terminal His6 (E. coli), tags kept; dimer
T4 sequence (Q7L4E1 170-593 R357N/S428G): T1 sequence (Q7L4E1 170-593) with R188N, S259G

T5: hMIGA2long (Homo sapiens, UniProt Q7L4E1, V381E/V502K/L506D/F524H)
T5 construct: gene MIGA2; N-terminal 3xFLAG (Expi293F) and/or C-terminal His6 (E. coli), tags kept; dimer
T5 sequence (Q7L4E1 170-593 V381E/V502K/L506D/F524H): T1 sequence (Q7L4E1 170-593) with V212E, V333K, L337D, F355H

B1: C. elegans MIGA2 cytosolic fragment with the coiled-coil of the linker region and the C-terminal domain (residues 106-496) (domain or fragment, UniProt Q21096 106-496, looked up)
chain: SMNPIEADITSGQELCTELRKTIEKVHHNLEMVKNRSSKDMERSIKIEGILKGLKQVEDEIVLLVPQMEDFRDDNMEFYSVSGGSGYAGSVRTGRSRTLSVLSDDSFRSAVEEFACDIDDIDFVSDAANLDKNELRFLDEGMQAALNGEVKYRKSRMEFCKCDSETDFAAKLYCVRQALTNALKDEHKRVWLAKCGRTLLADFIRHTKQDPVKFFNAYDEMLEYVSNDRNEEQLRQDVEGRGVCETGFYDVAIDFIILDAFEDLKSPPSAVYSVTKNYFMSMSMKYSTLNTIIWSIIKSKRQRLKNPDGFIAKFYNISETVMPAITLGFLGTDERLGELCQYFKEQVVQFVLDVFNTQKVCYRSLEEMSEDVWIVMRNRLEAVQTRMSNEL
notes: C. elegans MIGA (mitoguardin homolog), Uniprot Q21096, residues 106-496: coiled-coil segment of the linker region and the C-terminal domain; Co-purifies with glycerophospholipid from E. coli; Plasmids of the study are in Addgene (192832, 192833, 192834, 192835, 192837, 192866, 192867); also called CeMIGA2_(long); CeMIGA_(long); source: E. coli C43 (DE3), purified (Ni-NTA, sumo protease, second …)

Key:
hMIGA2long [1] = target: T1, hMIGA2long; assay: native PAGE co-migration, NBD fluorescence; assay type: binding; settings: labelled compound; on ice 2 h
hMIGA2C = target: T2, hMIGA2C; assay: end-point lipid transfer between tethered liposomes; assay type: biochemical; settings: labelled compound; 0.32 µM protein, 2% NBD-lipid in donor liposomes, 30 min
hMIGA2long [2] = target: T3, hMIGA2long; assay: FRET lipid transfer between tethered liposomes; assay type: biochemical; settings: labelled compound; 0.25 µM protein, 30°C; mutant M1, 3xFLAG and His6 tags
hMIGA2long [3] = target: T4, hMIGA2long; assay: FRET lipid transfer between tethered liposomes; assay type: biochemical; settings: labelled compound; 0.25 µM protein, 30°C; mutant M3, 3xFLAG and His6 tags
hMIGA2long [4] = target: T5, hMIGA2long; assay: FRET lipid transfer between tethered liposomes; assay type: biochemical; settings: labelled compound; 0.25 µM protein, 30°C; mutant M2, 3xFLAG and His6 tags
[5] = target: human MIGA2 cytosolic fragment with part of the linker region (coiled-coil) and the C-terminal domain, C-terminal 6xhis (human) (UniProt Q7L4E1); assay: native MS; 200 mM ammonium acetate, 2 mM DTT; protein 1-5 μM; Q Exactive UHMR
hMIGA2long [6] = target: T1, hMIGA2long; assay: FRET lipid transfer between tethered liposomes; assay type: biochemical; settings: labelled compound; 0.25 µM protein, 2% NBD-lipid in donor liposomes, 30°C
[7] = target: the molecule itself; assay: SEC; Superdex 200 16/60, with size standards

Molecule | native PAGE co-migration, NBD fluorescence (hMIGA2long [1]) | end-point lipid transfer between tethered liposomes (hMIGA2C) | also measured
CCCCCCCC/C=C\CCCCCCCC(=O)OC[C@H](COP(=O)(O)O)OC(=O)CCCCCCCCCCCNc1ccc([N+](=O)[O-])c2nonc12 [NBD-PAacyl] | Phospholipids (NBD-PAacyl, NBD-PCacyl NBD-PShead, NBD-PEacyl) visualized by their fluorescence, comigrated with protein | Both hMIGA2long and hMIGA2C transport NBD-PEacyl, -PSacyl, -PAacyl, and NBD-PCacyl | 
CCCCCCCC/C=C\CCCCCCCC(=O)OC[C@H](COP(=O)(O)OCCN)OC(=O)CCCCCCCCCCCNc1ccc([N+](=O)[O-])c2nonc12 [NBD-PEacyl] | Phospholipids (NBD-PAacyl, NBD-PCacyl NBD-PShead, NBD-PEacyl) visualized by their fluorescence, comigrated with protein | Both hMIGA2long and hMIGA2C transport NBD-PEacyl, -PSacyl, -PAacyl, and NBD-PCacyl | lipid transfer impaired (hMIGA2long [2]): all three mutant constructs (M1, M2, M3) are lipid transfer impaired; lipid transfer impaired (hMIGA2long [3]): all three mutant constructs (M1, M2, M3) are lipid transfer impaired; lipid transfer impaired (hMIGA2long [4]): all three mutant constructs (M1, M2, M3) are lipid transfer impaired
human MIGA2 cytosolic fragment with part of the linker region (coiled-coil) and the C-terminal domain, C-terminal 6xhis (from UniProt Q7L4E1 170-593) (domain or fragment) |  |  | stoichiometry N [5]: 2
CCCCCCCC/C=C\CCCCCCCC(=O)OC[C@H](COP(=O)([O-])OCC[N+](C)(C)C)OC(=O)CCCCCCCCCCCNc1ccc([N+](=O)[O-])c2nonc12 [NBD-PCacyl] | Phospholipids (NBD-PAacyl, NBD-PCacyl NBD-PShead, NBD-PEacyl) visualized by their fluorescence, comigrated with protein | Both hMIGA2long and hMIGA2C transport NBD-PEacyl, -PSacyl, -PAacyl, and NBD-PCacyl | 
CCCCCCCC/C=C\CCCCCCCC(=O)OC[C@H](COP(=O)(O)OC[C@H](Nc1ccc([N+](=O)[O-])c2nonc12)C(=O)O)OC(=O)CCCCCCC/C=C\CCCCCCCC [NBD-PShead] | Phospholipids (NBD-PAacyl, NBD-PCacyl NBD-PShead, NBD-PEacyl) visualized by their fluorescence, comigrated with protein |  | 
CCCCCCCC/C=C\CCCCCCCC(=O)OC[C@H](COP(=O)(O)OC[C@H](N)C(=O)O)OC(=O)CCCCCCCCCCCNc1ccc([N+](=O)[O-])c2nonc12 [NBD-PSacyl] |  | Both hMIGA2long and hMIGA2C transport NBD-PEacyl, -PSacyl, -PAacyl, and NBD-PCacyl | FRET lipid transfer between tethered liposomes (hMIGA2long [6]): hMIGA2long can transport NBD-PSacyl, NBD-PAacyl, NBD-PEacyl, and NBD-PCacyl
B1 |  |  | stoichiometry N [7]: 2
